Source: patent publication US20250304620A1, “ANTIMICROBIAL PEPTIDE AND APPLICATION THEREOF” (priority 2023, published 2025)
Converted amounts (≈) assume the structure as drawn. Non-standard residues stand in square brackets, D forms with d. Residues, ends and D or L forms follow the SMILES beside them. dPhe(3,4-Cl2) = N[C@H](Cc1ccc(Cl)c(Cl)c1)C(=O)O; dPhe(4-Cl) = N[C@H](Cc1ccc(Cl)cc1)C(=O)O; dPhe(4-Me) = Cc1ccc(C[C@@H](N)C(=O)O)cc1; d2Nal = N[C@H](Cc1ccc2ccccc2c1)C(=O)O; dNle = CCCC[C@@H](N)C(=O)O; dNva = CCC[C@@H](N)C(=O)O

What was measured:
[1] = system: Shigella flexneri ATCC 12022; assay: MIC against clinically common bacterial strain; assay type: cell-based
Excerpt: According to the Standards of Clinical and Laboratory Standards Institute (CLSI) of the USA for antimicrobial drug susceptibility test operation standards, the micronutrient serial twofold dilution method was used further determine MICs of 30 AMPs (S/N: LV-1 to LV-30) 10 clinically common sensitive strains and 6 fungi in clinical practice. The experiment was repeated 5 times in parallel.

rabbit red blood cells = assay type: cell-based; settings: red cells of rabbit, 1 h
[2] = system: carbapenem-resistant Pseudomonas aeruginosa (CRPA); assay type: cell-based; settings: carbapenem-resistant (CRPA)
Excerpt: (§1) According to the Standards of Clinical and Laboratory Standards Institute (CLSI) of the USA for antimicrobial drug susceptibility test operation standards, the micronutrient serial twofold dilution method was used further determine MICs of the antimicrobial peptides LV-1 to LV-30 against 5 clinically common drug-resistant bacterial strains. The experiment was repeated 5 times in parallel. […] The tested drug-resistant strains included Methicillin-resistant Staphylococcus aureus (MRSA), carbapenem-resistant Escherichia coli (CREC), vancomycin-resistant Enterococcus (VRE), carbapenem-resistant Pseudomonas aeruginosa (CRPA), and carbapenem-resistant Klebsiella pneumoniae (CRKP).

[3] = system: carbapenem-resistant Escherichia coli (CREC); assay type: cell-based; settings: carbapenem-resistant (CREC)
Excerpt: as §1

[4] = system: Methicillin-resistant Staphylococcus aureus (MRSA); assay type: cell-based; settings: Methicillin-resistant
Excerpt: as §1

[5] = system: vancomycin-resistant Enterococcus (VRE); assay type: cell-based
Excerpt: as §1

[6] = system: carbapenem-resistant Klebsiella pneumoniae (CRKP); assay type: cell-based; settings: carbapenem-resistant (CRKP)
Excerpt: as §1

[7] = Serum stability assay (residual level by RP-HPLC); settings: human

Row | SMILES | MIC Shigella flexneri ATCC 12022 [1] | MHC (minimum hemolytic concentration, lowest concentration causing 10% hemolysis) (rabbit red blood cells) | MIC CRPA [2] | MIC CREC [3] | MIC MRSA [4] | MIC VRE [5] | MIC CRKP [6] | remaining at 12 h, 0.91 mg/mL [7]
1 | CC(=O)N[C@H](CCCNC(=N)N)C(=O)N[C@H](CCCCN)C(=O)N[C@H](CC(C)C)C(=O)N[C@H](CC(C)C)C(=O)N[C@H](Cc1ccc(C)cc1)C(=O)N[C@H](CCCCN)C(=O)N[C@H](CC(C)C)C(=O)N[C@H](CCCCN)C(=O)N[C@H](Cc1ccc(C)cc1)C(=O)N[C@H](CCCCN)C(=O)N[C@H](CCCNC(=N)N)C(N)=O [LV-11] (Ac-[dR][dK][dL][dL][dPhe(4-Me)][dK][dL][dK][dPhe(4-Me)][dK][dR]-NH2) | 4 µg/mL (≈ 2.59 µM) | >1000 µg/mL | 4 µg/mL (≈ 2.59 µM) | 2 µg/mL (≈ 1.29 µM) | 2 µg/mL (≈ 1.29 µM) | 4 µg/mL (≈ 2.59 µM) | 8 µg/mL (≈ 5.17 µM) | 98.3%
2 | CCCC[C@@H](NC(=O)[C@@H](CCCCN)NC(=O)[C@@H](CCCNC(=N)N)NC(C)=O)C(=O)N[C@H](CCCC)C(=O)N[C@H](Cc1ccc2ccccc2c1)C(=O)N[C@H](CCCNC(=N)N)C(=O)N[C@H](CCCC)C(=O)N[C@H](CCCCN)C(=O)N[C@H](Cc1ccc2ccccc2c1)C(=O)N[C@H](CCCNC(=N)N)C(=O)N[C@H](CCCCN)C(N)=O [LV-12] (Ac-[dR][dK][dNle][dNle][d2Nal][dR][dNle][dK][d2Nal][dR][dK]-NH2) | 4 µg/mL (≈ 2.43 µM) | >1000 µg/mL | 2 µg/mL (≈ 1.21 µM) | 8 µg/mL (≈ 4.86 µM) | 8 µg/mL (≈ 4.86 µM) | 4 µg/mL (≈ 2.43 µM) | 4 µg/mL (≈ 2.43 µM) | 97.5%
3 | CC(=O)N[C@H](CCCNC(=N)N)C(=O)N[C@H](CCCCN)C(=O)N[C@H](CC(C)C)C(=O)N[C@H](CC(C)C)C(=O)N[C@H](Cc1ccc2ccccc2c1)C(=O)N[C@H](CCCCN)C(=O)N[C@H](CC(C)C)C(=O)N[C@H](CCCCN)C(=O)N[C@H](Cc1ccc2ccccc2c1)C(=O)N[C@H](CCCCN)C(=O)N[C@H](CCCNC(=N)N)C(N)=O [LV-18] (Ac-[dR][dK][dL][dL][d2Nal][dK][dL][dK][d2Nal][dK][dR]-NH2) | 8 µg/mL (≈ 4.94 µM) | >1000 µg/mL | 4 µg/mL (≈ 2.47 µM) | 2 µg/mL (≈ 1.24 µM) | 4 µg/mL (≈ 2.47 µM) | 8 µg/mL (≈ 4.94 µM) | 2 µg/mL (≈ 1.24 µM) | 97.6%
4 | CC(=O)N[C@H](CCCCN)C(=O)N[C@H](CCCCN)C(=O)N[C@H](CC(C)C)C(=O)N[C@H](CC(C)C)C(=O)N[C@H](Cc1ccc2ccccc2c1)C(=O)N[C@H](CCCCN)C(=O)N[C@H](CC(C)C)C(=O)N[C@H](CCCCN)C(=O)N[C@H](Cc1ccc2ccccc2c1)C(=O)N[C@H](CCCCN)C(=O)N[C@H](CCCCN)C(N)=O [LV-17] (Ac-[dK][dK][dL][dL][d2Nal][dK][dL][dK][d2Nal][dK][dK]-NH2) | 4 µg/mL (≈ 2.56 µM) | >1000 µg/mL | 4 µg/mL (≈ 2.56 µM) | 4 µg/mL (≈ 2.56 µM) | 8 µg/mL (≈ 5.12 µM) | 8 µg/mL (≈ 5.12 µM) | 4 µg/mL (≈ 2.56 µM) | 97.2%
5 | CC(=O)N[C@H](CCCNC(=N)N)C(=O)N[C@H](CCCCN)C(=O)N[C@H](CC(C)C)C(=O)N[C@H](CC(C)C)C(=O)N[C@H](Cc1ccc(Cl)c(Cl)c1)C(=O)N[C@H](CCCCN)C(=O)N[C@H](CC(C)C)C(=O)N[C@H](CCCCN)C(=O)N[C@H](Cc1ccc(Cl)c(Cl)c1)C(=O)N[C@H](CCCCN)C(=O)N[C@H](CCCNC(=N)N)C(N)=O [LV-8] (Ac-[dR][dK][dL][dL][dPhe(3,4-Cl2)][dK][dL][dK][dPhe(3,4-Cl2)][dK][dR]-NH2) | 4 µg/mL (≈ 2.42 µM) | >1000 µg/mL | 8 µg/mL (≈ 4.83 µM) | 4 µg/mL (≈ 2.42 µM) | 4 µg/mL (≈ 2.42 µM) | 8 µg/mL (≈ 4.83 µM) | 2 µg/mL (≈ 1.21 µM) | 97.6%
6 | CC(=O)N[C@H](CCCNC(=N)N)C(=O)N[C@H](CCCCN)C(=O)N[C@H](CC(C)C)C(=O)N[C@H](CC(C)C)C(=O)N[C@H](Cc1ccc2ccccc2c1)C(=O)N[C@H](CCCNC(=N)N)C(=O)N[C@H](CC(C)C)C(=O)N[C@H](CCCCN)C(=O)N[C@H](Cc1ccccc1)C(=O)N[C@H](CCCNC(=N)N)C(=O)N[C@H](CCCCN)C(N)=O [LV-4] (Ac-[dR][dK][dL][dL][d2Nal][dR][dL][dK][dF][dR][dK]-NH2) | 4 µg/mL (≈ 2.51 µM) | >1000 µg/mL | 4 µg/mL (≈ 2.51 µM) | 8 µg/mL (≈ 5.01 µM) | 8 µg/mL (≈ 5.01 µM) | 2 µg/mL (≈ 1.25 µM) | 2 µg/mL (≈ 1.25 µM) | 98.7%
7 | CC(=O)N[C@H](CCCNC(=N)N)C(=O)N[C@H](CCCCN)C(=O)N[C@H](C)C(=O)N[C@H](C)C(=O)N[C@H](Cc1ccc2ccccc2c1)C(=O)N[C@H](CCCNC(=N)N)C(=O)N[C@H](C)C(=O)N[C@H](CCCCN)C(=O)N[C@H](Cc1ccc2ccccc2c1)C(=O)N[C@H](CCCNC(=N)N)C(=O)N[C@H](CCCCN)C(N)=O [LV-15] (Ac-[dR][dK][dA][dA][d2Nal][dR][dA][dK][d2Nal][dR][dK]-NH2) | 2 µg/mL (≈ 1.32 µM) | >1000 µg/mL | 8 µg/mL (≈ 5.26 µM) | 4 µg/mL (≈ 2.63 µM) | 4 µg/mL (≈ 2.63 µM) | 8 µg/mL (≈ 5.26 µM) | 8 µg/mL (≈ 5.26 µM) | 97.3%
8 | CC(=O)N[C@H](CCCNC(=N)N)C(=O)N[C@H](CCCCN)C(=O)N[C@H](CC(C)C)C(=O)N[C@H](CC(C)C)C(=O)N[C@H](Cc1ccc2ccccc2c1)C(=O)N[C@H](CCCNC(=N)N)C(=O)N[C@H](CC(C)C)C(=O)N[C@H](CCCCN)C(=O)N[C@H](Cc1ccc2ccccc2c1)C(=O)N[C@H](CCCNC(=N)N)C(=O)N[C@H](CCCNC(=N)N)C(N)=O [LV-22] (Ac-[dR][dK][dL][dL][d2Nal][dR][dL][dK][d2Nal][dR][dR]-NH2) | 4 µg/mL (≈ 2.39 µM) | >1000 µg/mL | 8 µg/mL (≈ 4.78 µM) | 8 µg/mL (≈ 4.78 µM) | 2 µg/mL (≈ 1.19 µM) | 4 µg/mL (≈ 2.39 µM) | 2 µg/mL (≈ 1.19 µM) | 97.2%
9 | CC(=O)N[C@H](CCCNC(=N)N)C(=O)N[C@H](CCCCN)C(=O)N[C@H](CC(C)C)C(=O)N[C@H](CC(C)C)C(=O)N[C@H](Cc1ccc(Cl)cc1)C(=O)N[C@H](CCCCN)C(=O)N[C@H](CC(C)C)C(=O)N[C@H](CCCCN)C(=O)N[C@H](Cc1ccc(Cl)cc1)C(=O)N[C@H](CCCCN)C(=O)N[C@H](CCCNC(=N)N)C(N)=O [LV-7] (Ac-[dR][dK][dL][dL][dPhe(4-Cl)][dK][dL][dK][dPhe(4-Cl)][dK][dR]-NH2) | 4 µg/mL (≈ 2.52 µM) | >1000 µg/mL | 2 µg/mL (≈ 1.26 µM) | 8 µg/mL (≈ 5.04 µM) | 2 µg/mL (≈ 1.26 µM) | 4 µg/mL (≈ 2.52 µM) | 4 µg/mL (≈ 2.52 µM) | 98.9%
10 | CC(=O)N[C@H](CCCNC(=N)N)C(=O)N[C@H](CCCCN)C(=O)N[C@@H](C(=O)N[C@@H](C(=O)N[C@H](Cc1ccc2ccccc2c1)C(=O)N[C@H](CCCNC(=N)N)C(=O)N[C@@H](C(=O)N[C@H](CCCCN)C(=O)N[C@H](Cc1ccc2ccccc2c1)C(=O)N[C@H](CCCNC(=N)N)C(=O)N[C@H](CCCCN)C(N)=O)C(C)C)C(C)C)C(C)C [LV-16] (Ac-[dR][dK][dV][dV][d2Nal][dR][dV][dK][d2Nal][dR][dK]-NH2) | 2 µg/mL (≈ 1.25 µM) | >1000 µg/mL | 8 µg/mL (≈ 4.99 µM) | 8 µg/mL (≈ 4.99 µM) | 4 µg/mL (≈ 2.49 µM) | 2 µg/mL (≈ 1.25 µM) | 2 µg/mL (≈ 1.25 µM) | 98.4%
11 | CCC[C@@H](NC(=O)[C@@H](CCCCN)NC(=O)[C@@H](CCCNC(=N)N)NC(C)=O)C(=O)N[C@H](CCC)C(=O)N[C@H](Cc1ccc2ccccc2c1)C(=O)N[C@H](CCCNC(=N)N)C(=O)N[C@H](CCC)C(=O)N[C@H](CCCCN)C(=O)N[C@H](Cc1ccc2ccccc2c1)C(=O)N[C@H](CCCNC(=N)N)C(=O)N[C@H](CCCCN)C(N)=O [LV-13] (Ac-[dR][dK][dNva][dNva][d2Nal][dR][dNva][dK][d2Nal][dR][dK]-NH2) | 8 µg/mL (≈ 4.99 µM) | >1000 µg/mL | 2 µg/mL (≈ 1.25 µM) | 4 µg/mL (≈ 2.49 µM) | 2 µg/mL (≈ 1.25 µM) | 4 µg/mL (≈ 2.49 µM) | 2 µg/mL (≈ 1.25 µM) | 98.5%
